Where a name gives a salt, the structure may show the parent alone.
What was measured:
[1] = biological target: T1, Human vitronectin receptor (αv β3) (Homo sapiens, UniProt P05106+P06756); experiment: Vitronectin adhesion assay (solid phase receptor assay, αvβ3); assay type: binding; settings: inhibition of binding of biotinylated human vitronectin (1 nM) to purified receptor; Table I; read-out: AvB3 IC50
T1 construct: Human vitronectin receptor (αv β3) was purified from human placenta; from tissue; host or cells: human placenta
T1 sequence (P06756 31-889 limits assumed): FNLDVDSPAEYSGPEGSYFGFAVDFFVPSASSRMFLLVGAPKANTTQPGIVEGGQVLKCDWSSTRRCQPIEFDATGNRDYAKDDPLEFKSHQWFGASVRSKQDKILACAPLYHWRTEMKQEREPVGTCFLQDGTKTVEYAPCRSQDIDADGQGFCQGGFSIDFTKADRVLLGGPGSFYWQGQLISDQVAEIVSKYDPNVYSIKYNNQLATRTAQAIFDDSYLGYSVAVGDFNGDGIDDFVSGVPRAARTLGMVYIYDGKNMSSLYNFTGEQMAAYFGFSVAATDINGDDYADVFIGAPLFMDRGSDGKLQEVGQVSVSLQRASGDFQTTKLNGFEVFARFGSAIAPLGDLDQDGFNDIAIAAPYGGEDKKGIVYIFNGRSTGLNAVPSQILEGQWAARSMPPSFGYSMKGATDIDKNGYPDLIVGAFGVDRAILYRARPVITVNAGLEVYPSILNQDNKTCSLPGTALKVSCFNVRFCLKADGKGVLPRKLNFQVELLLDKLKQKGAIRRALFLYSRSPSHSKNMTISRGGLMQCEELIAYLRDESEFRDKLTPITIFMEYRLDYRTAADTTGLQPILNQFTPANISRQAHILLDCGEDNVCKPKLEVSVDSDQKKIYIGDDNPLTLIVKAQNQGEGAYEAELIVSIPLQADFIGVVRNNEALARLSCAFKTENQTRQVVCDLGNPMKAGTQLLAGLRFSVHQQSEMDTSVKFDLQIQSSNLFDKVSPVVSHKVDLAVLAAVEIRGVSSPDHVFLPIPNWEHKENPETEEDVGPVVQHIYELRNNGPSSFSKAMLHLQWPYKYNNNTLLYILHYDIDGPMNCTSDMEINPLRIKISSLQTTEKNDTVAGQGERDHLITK
T1 sequence (P06756 891-1048 limits assumed): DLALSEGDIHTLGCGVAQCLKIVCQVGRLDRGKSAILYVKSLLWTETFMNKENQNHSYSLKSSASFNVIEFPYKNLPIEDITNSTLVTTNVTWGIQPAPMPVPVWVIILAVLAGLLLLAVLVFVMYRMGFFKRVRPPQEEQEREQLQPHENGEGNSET
T1 sequence (P05106 27-788): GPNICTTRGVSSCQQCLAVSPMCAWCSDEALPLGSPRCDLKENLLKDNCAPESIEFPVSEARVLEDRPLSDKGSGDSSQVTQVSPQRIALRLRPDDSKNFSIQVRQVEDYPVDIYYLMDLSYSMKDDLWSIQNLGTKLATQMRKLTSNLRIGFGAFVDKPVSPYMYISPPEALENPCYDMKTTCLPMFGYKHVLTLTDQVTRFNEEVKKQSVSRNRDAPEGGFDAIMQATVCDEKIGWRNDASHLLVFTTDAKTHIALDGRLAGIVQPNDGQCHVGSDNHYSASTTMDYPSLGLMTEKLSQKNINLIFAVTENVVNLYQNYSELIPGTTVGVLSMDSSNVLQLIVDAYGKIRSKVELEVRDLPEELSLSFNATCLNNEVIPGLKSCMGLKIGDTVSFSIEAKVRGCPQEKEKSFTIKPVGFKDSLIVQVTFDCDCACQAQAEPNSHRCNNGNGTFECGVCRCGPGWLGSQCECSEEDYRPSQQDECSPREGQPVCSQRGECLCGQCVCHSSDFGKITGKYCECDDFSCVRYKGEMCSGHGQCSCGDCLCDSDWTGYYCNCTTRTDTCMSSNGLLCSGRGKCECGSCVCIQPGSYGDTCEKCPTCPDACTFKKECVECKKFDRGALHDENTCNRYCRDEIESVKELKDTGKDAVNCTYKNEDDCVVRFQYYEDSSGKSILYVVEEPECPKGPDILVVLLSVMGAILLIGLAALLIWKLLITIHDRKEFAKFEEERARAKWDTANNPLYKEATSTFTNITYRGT
Summary of the method: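 Placental αvβ3 (100 ng/well) coated in TBS with 1 mM Ca, Mg, Mn, pH 7.4, then compound competed with 1 nM biotinylated vitronectin for 2 h at room temperature (top compound concentration 1.0×10^-4 M). Bound ligand detected with HRP anti-biotin/OPD at 450 nm; values normalized to maximum binding, four-parameter curve fit.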

[2] = biological target: T2, Human fibrinogen receptor (αIIb β3) (Homo sapiens, UniProt P05106+P08514); experiment: Purified IIb/IIIa receptor assay (solid phase receptor assay); settings: inhibition of binding of biotinylated human vitronectin (1 nM) to purified receptor; Table I
T2 construct: Human fibrinogen receptor (αIIb β3) was purified from outdated platelets; from tissue; host or cells: human outdated platelets
T2 sequence (P08514 32-887 limits assumed): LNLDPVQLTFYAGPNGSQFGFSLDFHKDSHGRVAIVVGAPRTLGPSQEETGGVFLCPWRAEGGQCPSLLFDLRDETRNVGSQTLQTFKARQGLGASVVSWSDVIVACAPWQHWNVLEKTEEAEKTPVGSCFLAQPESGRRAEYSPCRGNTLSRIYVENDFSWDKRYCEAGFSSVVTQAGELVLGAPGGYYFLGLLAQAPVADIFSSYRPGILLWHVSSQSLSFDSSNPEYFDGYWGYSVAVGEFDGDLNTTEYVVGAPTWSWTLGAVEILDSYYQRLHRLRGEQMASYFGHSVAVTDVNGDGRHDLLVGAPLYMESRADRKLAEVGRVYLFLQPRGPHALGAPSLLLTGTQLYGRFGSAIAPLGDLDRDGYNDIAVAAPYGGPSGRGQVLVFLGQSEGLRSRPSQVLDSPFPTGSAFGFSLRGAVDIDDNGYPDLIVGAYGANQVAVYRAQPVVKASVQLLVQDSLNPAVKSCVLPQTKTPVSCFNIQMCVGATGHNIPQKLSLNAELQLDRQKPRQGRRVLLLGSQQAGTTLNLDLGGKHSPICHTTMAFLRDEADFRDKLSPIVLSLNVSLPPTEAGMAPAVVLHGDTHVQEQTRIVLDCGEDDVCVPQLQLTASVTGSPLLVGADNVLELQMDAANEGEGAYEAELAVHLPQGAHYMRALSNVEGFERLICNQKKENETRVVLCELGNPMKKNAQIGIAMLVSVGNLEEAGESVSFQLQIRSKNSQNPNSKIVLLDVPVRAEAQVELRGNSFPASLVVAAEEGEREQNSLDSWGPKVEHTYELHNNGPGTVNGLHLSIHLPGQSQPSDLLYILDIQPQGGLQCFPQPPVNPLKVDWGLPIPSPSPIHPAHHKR
T2 sequence (P08514 891-1039 limits assumed): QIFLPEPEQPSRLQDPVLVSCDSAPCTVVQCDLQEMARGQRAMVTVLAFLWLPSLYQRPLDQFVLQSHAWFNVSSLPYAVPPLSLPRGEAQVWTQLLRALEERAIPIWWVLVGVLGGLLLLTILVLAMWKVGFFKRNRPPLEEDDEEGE
T2 sequence (P05106 27-788): as the sequence (P05106 27-788) above
Summary of the method: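 Platelet-purified αIIbβ3 (100 ng/well) coated overnight at 4 °C, then competed 2 h at room temperature against 1 nM biotinylated human vitronectin in TBS with 1.0 mM Ca/Mg/Mn, pH 7.4, 1% BSA; top compound 1.0×10^-4 M. Bound ligand detected by HRP anti-biotin, A450, normalized to maximum binding, four-parameter fit.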

IC50 [1] [µM]	IC50 [2] [µM]	Structure (SMILES)
0.0306	0.664	O=C(O)/C=C/c1ccc(/C=C/c2cccc(NC3=NCCCS3)c2)cc1 [Example 100, 3-[4-[2-[3-[(5,6-dihydro-4H-thiazin-2-yl)amino]phenyl]ethenyl]phenyl]propenoic acid, trifluoroacetate salt]
0.0426	0.118	O=C(O)/C=C/c1ccc(OCc2cccc(NC3=NCCCN3)c2)cc1 [Example 101, 3-[4-[[3-[(1,4,5,6-tetrahydropyrimidin-2-yl)amino]phenyl]methoxy]phenyl]propenoic acid, trifluoroacetate salt]
1.94	4.48	N=C(N)Nc1cccc(-c2nc(-c3cccc(/C=C/C(=O)O)c3)co2)c1 [Example 102, 3-[3-[2-[3-[(aminoiminomethyl)amino]phenyl]oxazol-4-yl]phenyl]propenoic acid, trifluoroacetate salt]
32.1	0.0009	N=C(N)Nc1cccc(-c2coc(-c3ccc(C=CC(=O)O)cc3)n2)c1 [Example 103, 3-[4-[4-[3-[(aminoiminomethyl)amino]phenyl]oxazol-2-yl]phenyl]propenoic acid]
17.3	0.0245	N=C(N)Nc1cccc(-c2ncc(-c3ccc(/C=C/C(=O)O)cc3)[nH]2)c1 [Example 104, 3-[4-[2-[3-[(aminoiminomethyl)amino]phenyl]-1H-imidazol-5-yl]phenyl]propenoic acid, trifluoroacetate salt]
